Values quoted from earlier work, collected in EP1033131B1, “Composition in the form of a drink having a delayed alcohol aversion effect” (Semenov, Sergei Petrovich, priority 1997, dated 1999).

Tests used:
[1] = system: Ratten; conditions: in vivo
[2] = for Anregungseffekt der Alkoholwirkung / alkoholische Anregung: result in words
[3] = in vivo
[4] = system: Cholinesterase; conditions: factor of reduction

Molecule | Verlaufsschwere des Alkoholentzugssyndroms [1] | Dauer des narkotischen Effekts des Alkohols [3] | Anregungseffekt der Alkoholwirkung / alkoholische Anregung [2] | further results
2,6-Diethylester der Ascorbinsäure | vermindert | vermindert |  | Stärke der alkoholischen Anregung, vermindert mit dem Quotienten ([2]; factor of reduction): 4; Eintreten der Anregungsphase ([2]; in vivo): verlangsamt; Dauer der alkoholischen Anregung, vermindert um ([2]; percent reduction): 25%
3,6-Diethylester der Ascorbinsäure |  | vermindert |  | 
CCOC(=O)C(O)=C(O)C(O)C(O)CO (centres unmarked) [1-Ethylester der Ascorbinsäure] |  |  | vermindern | Zeitraum der Anregung, verkürzt mit dem Quotienten ([2]; factor of shortening): 2; Aktivität der Cholinesterase, vermindert mit dem Quotienten [4]: > 2
CCOC1=C(OCC)C(C(O)CO)OC1=O (centres unmarked) [2,3-Diethylester der Ascorbinsäure] | vermindert |  | beeinflusst | 
